Results reported in patent US20240376051A1, “CRYSTALLINE FORM OF PYRROLE AMIDE COMPOUND, PREPARATION METHOD THEREFOR AND USE THEREOF” (SUNSHINE LAKE PHARMA CO., LTD., priority 2021, published 2024).
Like-named read-outs stand apart in the source and are kept apart here.

Tests used:
[1] = Pharmacokinetic experiment, oral capsule in Beagle dogs; format: in vivo; details: 5 mg/kg; for AUClast / Cmax / Tmax: male Beagle dogs
Experimental: The crystalline form I prepared by referring to any method of Example 2 was filled into capsules, which are used for oral administration.
8-12 kg Male Beagle dogs were divided into 2 groups, and 3 in each group. Each Beagle dog was orally administered the capsule containing the test sample at a dose of 5 mg/kg, and blood was collected at time points of 0.25, 0.5, 1.0, 2.0, 4.0, 6.0, 8.0 and 24 hours. Standard curve was plotted based on concentrations of the samples in a suitable range, the concentration of the test sample in the plasma sample was measured and quantified by AB SCIEX API4000 LC-MS/MS at MRM mode. Pharmacokinetic parameters were calculated according to drug concentration-time curve using a noncompartmental method by WinNonLin 6.3 software.
A pharmacokinetic experiment of the amorphous form prepared with reference to Example 1 was carried out according to the above method, and the results are shown in Table 1.

[2] = Stability experiment: high temperature test; format: physicochemical; details: for Appearance / Total impurity %: 60°C±2°C; for Total impurity %: HPLC
Experimental: (§1) Test samples: crystalline form I was prepared by referring to any method of Example 2, and amorphous form was prepared by referring to Example 1.
The following tests of test samples were carried out: • (1) High temperature test: an appropriate amount of the test sample was taken into a flat weighing bottle, spread into a thin layer with a thickness of ≤5 mm. The samples were placed at 60° C.±2° C. for 30 days. The samples were taken for testing according to the key stability inspection items on the 5th, 10th, and 30th day. The color change of the samples was observed. The purity of the samples was determined by HPLC.

[3] = Stability experiment: high humidity test; format: physicochemical; details: for Appearance / Total impurity %: 25°C, RH 90%±5%; for Total impurity %: HPLC
Experimental: as §1
• (2) High humidity test: an appropriate amount of the test sample was taken into a flat weighing bottle, spread into a thin layer with a thickness of ≤5 mm. The samples were placed at 25° C. and RH for 90%±5% for 30 days. The samples were taken for testing according to the key stability inspection items on the 5th, 10th, and 30th day. The color change of the samples was observed. The purity of the samples was determined by HPLC.

[4] = Stability experiment: light test; format: physicochemical; details: for Appearance / Total impurity %: 25°C, white light 4990 lux; for Total impurity %: HPLC
Experimental: as §1
• (3) Light test: an appropriate amount of the test sample was taken into a flat weighing bottle, spread into a thin layer with a thickness of ≤5 mm. The samples were placed in a light box (with a UV lamp) and placed under the conditions of 25° C., white light 4990 lux, and UV 1.4 W·h/m^2 for 30 days. The samples were taken for testing on the 5th, 10th, and 30th day. The color change of the samples was observed. The purity of the samples was determined by HPLC.

[5] = Hygroscopicity experiment (dynamic moisture adsorption, DVS); format: physicochemical; details: for The hygroscopicity feature: Chinese Pharmacopoeia 2020 definition, 25°C±1°C, 80%±2% relative humidity; for Weight gain at 60% relative humidity/% / Weight gain at 80% relative humidity/% / Weight gain at 95% relative humidity/%: DVS, 25°C
Experimental: The hygroscopicity of the present invention was measured by a DVS INT-Std dynamic moisture and gas adsorption analyzer from Surface Measurement Systems, UK. The humidity test range: 0%-95%, air flow: 200 mL/min, temperature: 25° C., test point: every 5% increase in humidity to take a test point.
Test samples: crystalline form I prepared by referring to any method of Example 2, and amorphous form prepared by referring to Example 1.
An appropriate amount of the test sample was taken, and the hygroscopicity was tested by a dynamic moisture adsorption device. The description of the hygroscopicity feature and the definition of the hygroscopicity gain (Chinese Pharmacopoeia 2020 edition. Appendix 9103 Guidelines for drug dampness test, experimental, conditions: 25° C.±1° C. 80%±2% relative humidity) as described in Table 6 below: […]

[6] = Stability experiment: accelerated test; format: physicochemical; details: for Total impurity % / Appearance: 40±2°C/75%±5% RH; for Total impurity %: HPLC; for Appearance: PE package plus aluminum foil
Experimental: as §1
• (4) Accelerated test: an appropriate amount of crystalline form I test samples in a single-layer PE package plus aluminum foil packaging was stored for 6 months under the conditions of 40±2° C./75%±5% RH. Samples were taken for testing in the 1st, 2nd, 3rd and 6th month. The color change of the samples was observed. The purity of the samples was determined by HPLC.

With Cc1c(C(=O)Nc2ccc(S(C)(=O)=O)c(F)c2)cn(CCO)c1-c1ccccc1C(F)(F)F [Amorphous form, (S)-1-(2-hydroxyethyl)-4-methyl-N-(3-fluoro-4-(methylsulfonyl)phenyl)-5-(2-(trifluoromethyl)phenyl)-1H-pyrrole-3-carboxamide] the AUClast [1] was 20900 ng·h/mL, the Cmax [1] was 913 ng/mL and the Tmax [1] was 3.33 h. For the same molecule, the Appearance ([2]; 0 day) was “Off-white”, the Total impurity % ([2]; 0 day) was 0.40% and the Appearance ([2]; 5 days) was “Off-white”. For the same molecule, the Total impurity % ([2]; 5 days) was 0.46%, the Appearance ([2]; 10 days) was “Off-white” and the Total impurity % ([2]; 10 days) was 0.55%. The Appearance ([2]; 30 days) was “Off-white”, the Total impurity % ([2]; 30 days) was 1.28% and the Appearance ([3]; 0 day) was “Off-white”. The Total impurity % ([3]; 0 day) was 0.40%, the Appearance ([3]; 5 days) was “Off-white” and the Total impurity % ([3]; 5 days) was 0.47%. For the same molecule, the Appearance ([3]; 10 days) was “Off-white”, the Total impurity % ([3]; 10 days) was 0.53% and the Appearance ([3]; 30 days) was “Off-white”. The Total impurity % ([3]; 30 days) was 0.57%, the Appearance ([4]; UV 1.4 W·h/m^2, 0 day) was “Off-white” and the Total impurity % ([4]; UV 1.4 W·h/m^2, 0 day) was 0.40%. For the same molecule, the Total impurity % ([4]; UV 1.4 W·h/m^2, 5 days) was 0.85%, the Total impurity % ([4]; UV 1.4 W·h/m^2, 10 days) was 1.79% and the Total impurity % ([4]; UV 1.4 W·h/m^2, 30 days) was 3.47%. The The hygroscopicity feature [5] was “slight hygroscopicity”, the “Weight gain at 60% relative humidity/%” value [5] was 1.401% and the “Weight gain at 80% relative humidity/%” value [5] was 1.826%. The “Weight gain at 95% relative humidity/%” value [5] was 2.707%.
In the case of Cc1c(C(=O)Nc2ccc(S(C)(=O)=O)c(F)c2)cn(CCO)c1-c1ccccc1C(F)(F)F [Crystalline form I, (S)-1-(2-hydroxyethyl)-4-methyl-N-(3-fluoro-4-(methylsulfonyl)phenyl)-5-(2-(trifluoromethyl)phenyl)-1H-pyrrole-3-carboxamide], the “exposure and blood drug concentration compared with the amorphous form” value ([1]; Beagle dogs) is reported as “higher exposure and blood drug concentration than the amorphous form”, the AUClast [1] is reported as 42300 ng·h/mL and the Cmax ([1]; male, Beagle, dog, plasma, po, read-out: Cmax) is reported as 1450 ng/mL. The Tmax ([1]; male, Beagle, dog, plasma, po, read-out: Tmax) was 4 h, the Appearance ([2]; 0 day) was “White” and the Total impurity % ([2]; 0 day) was 0.34%. The Appearance ([2]; 5 days) was “White”, the Total impurity % ([2]; 5 days) was 0.36% and the Appearance ([2]; 10 days) was “White”. The Total impurity % ([2]; 10 days) was 0.34%, the Appearance ([2]; 30 days) was “White” and the Total impurity % ([2]; 30 days) was 0.34%. For the same molecule, the “change of appearance and purity” value ([2]; high temperature (60°C), 30 days) was “no obvious changes”, the Appearance ([3]; 0 day) was “White” and the Total impurity % ([3]; 0 day) was 0.34%. For the same molecule, the Appearance ([3]; 5 days) was “White”, the Total impurity % ([3]; 5 days) was 0.35% and the Appearance ([3]; 10 days) was “White”. The Total impurity % ([3]; 10 days) was 0.36%, the Appearance ([3]; 30 days) was “White” and the Total impurity % ([3]; 30 days) was 0.34%. For the same molecule, the “change of appearance and purity” value ([3]; high humidity (25°C, RH 90%±5%), 30 days) was “no obvious changes”, the Appearance ([4]; UV 1.4 W·h/m^2, 0 day) was “White” and the Total impurity % ([4]; UV 1.4 W·h/m^2, 0 day) was 0.34%. The Appearance ([4]; UV 1.4 W·h/m^2, 5 days) was “White”, the Total impurity % ([4]; UV 1.4 W·h/m^2, 5 days) was 0.34% and the Appearance ([4]; UV 1.4 W·h/m^2, 10 days) was “White”. The Total impurity % ([4]; UV 1.4 W·h/m^2, 10 days) was 0.32%, the Appearance ([4]; UV 1.4 W·h/m^2, 30 days) was “White” and the Total impurity % ([4]; UV 1.4 W·h/m^2, 30 days) was 0.49%. For the same molecule, the “change of appearance and purity” value ([4]; light, 30 days) was “no obvious changes”, the Total impurity % ([6]; 0 day) was 0.78% and the Total impurity % ([6]; 1 month) was 0.72%. It also gave a Total impurity % ([6]; 2 months) of 0.73%, a Total impurity % ([6]; 3 months) of 0.73% and a Total impurity % ([6]; 6 months) of 0.71%. The Appearance ([6]; 0 day) was “White”, the Appearance ([6]; 1 month) was “White” and the Appearance ([6]; 2 months) was “White”. For the same molecule, the Appearance ([6]; 3 months) was “White”, the Appearance ([6]; 6 months) was “White” and the “change of appearance and purity” value ([6]; accelerated test conditions, 6 months) was “do not change significantly”. The The hygroscopicity feature [5] was “no or almost no hygroscopicity”, the “Weight gain at 60% relative humidity/%” value [5] was 0.120% and the “Weight gain at 80% relative humidity/%” value [5] was 0.185%. The “Weight gain at 95% relative humidity/%” value [5] was 0.304%.
